Legend:
[1] = system: bacteria; yeasts and molds; E. coli; experiment: antimicrobial efficacy testing (microbial limit test, European Pharmacopoeia 5th ed.); details: glycerol as preservative
[2] = storage at 5° C.
[3] = observations on preserved pregabalin compositions (Remarks of Table 1: pH, particles, color, mold); format: physicochemical; details: sorbic acid used with pregabalin
Description: Other common preservatives, such as ethanol, are unsuitable for use in pediatric formulations.
In TABLE 1, the annotations “Meets Ph. Eur.” and “Fails Ph. Eur.” refer to whether the test results meet or fail the microbial limit test as defined in the current edition of European Pharmacopoeia (5th ed., 2004): 1000 bacteria per g (max); 100 yeasts and molds per g (max); and free of E. coli.

## OCC(O)CO [glycerol]
[1]
  compliance with requirements of European Pharmacopoeia (5th ed., 2004): does not comply
[2]
  behaviour in solution under storage: precipitated out of solution

## O=C1NS(=O)(=O)c2ccccc21.[Na] [sodium saccharin]
[2]
  behaviour in solution under storage: remained in solution

## C/C=C/C=C/C(=O)O [sorbic acid]
[3]
  appearance of the solution: discoloration of the solution
  shift in pH: 5.0

## OC[C@@H](O)[C@H](O)[C@@H](O)CO [xylitol]
[2]
  behaviour in solution under storage: precipitated out of solution
